Measurements reported in US8871753B2, “Macrocyclic compounds and their use as kinase inhibitors” (Incyte Corporation, priority 2008, dated 2014).
Structures can show the parent of a compound that is named as a salt.

Assays:
Type in all cases: biochemical
[1] = target: T1, human JAK1 (a.a. 837-1142) (Homo sapiens, UniProt P23458); assay: In vitro JAK kinase assay (HTRF, phosphorylation of a biotinylated peptide), JAK1; details: Table B1; read-out: JAK1 IC50
T1 construct: human JAK1 (a.a. 837-1142); His tag (N); made in house; host or cells: insect cells (baculovirus)
Method in brief: (§1)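 Kinase activity was measured as phosphorylation of a biotinylated peptide, with ATP at 90 μM for JAK1, 30 μM for JAK2 and 3 μM for JAK3. Reactions ran 1 hr at room temperature, were stopped with EDTA plus SA-APC and Eu-Py20, and were read by HTRF after 40 minutes of antibody binding.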

[2] = target: T2, human JAK3 (a.a. 781-1124) (Homo sapiens, UniProt P52333); assay: In vitro JAK kinase assay (HTRF, phosphorylation of a biotinylated peptide), JAK3; details: Table B1
T2 construct: JAK3 (a.a. 781-1124); His tag (N); made in house; host or cells: insect cells (baculovirus)
Method in brief: as §1

TYK2 = TYK2 (Homo sapiens, UniProt P29597); assay: TYK2 kinase inhibition (Table A1); details: Table B1
[3] = target: T3, human JAK2 (a.a. 828-1132) (Homo sapiens, UniProt O60674); assay: In vitro JAK kinase assay (HTRF, phosphorylation of a biotinylated peptide), JAK2; details: Table B1
T3 construct: JAK2 (a.a. 828-1132); His tag (N); made in house; host or cells: insect cells (baculovirus)
Method in brief: as §1

[4] = target: T4, Recombinant Human Anaplastic Lymphoma Kinase (Homo sapiens, UniProt Q9UM73); assay: ALK HTRF kinase assay; details: for IC50: Table B1, cells without percent sign; for ALK % of inhibition at a concentration of 500 nM or 1 mM: compound at a concentration of 500 nM or 1 mM (not specified), cells shown as percentage
T4 construct: purchased Invitrogen, Carlsbad, Calif
Method in brief: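 Kinase activity of the recombinant human protein is measured on a biotinylated peptide, with a Eu-W1024 anti-phosphotyrosine antibody and streptavidin-allophycocyanin generating the homogeneous time-resolved fluorescence signal. Inhibition curves are fitted to yield IC50.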

T1 sequence (P23458 849-1154): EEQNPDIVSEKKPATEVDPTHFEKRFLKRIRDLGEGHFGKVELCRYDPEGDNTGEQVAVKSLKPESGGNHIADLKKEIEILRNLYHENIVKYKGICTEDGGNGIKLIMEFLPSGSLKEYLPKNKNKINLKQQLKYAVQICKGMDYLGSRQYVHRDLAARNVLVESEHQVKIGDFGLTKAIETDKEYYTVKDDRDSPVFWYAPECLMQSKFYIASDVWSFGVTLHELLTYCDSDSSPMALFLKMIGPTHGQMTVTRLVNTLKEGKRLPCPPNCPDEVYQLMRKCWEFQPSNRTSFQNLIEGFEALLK
T2 sequence (P52333 781-1124): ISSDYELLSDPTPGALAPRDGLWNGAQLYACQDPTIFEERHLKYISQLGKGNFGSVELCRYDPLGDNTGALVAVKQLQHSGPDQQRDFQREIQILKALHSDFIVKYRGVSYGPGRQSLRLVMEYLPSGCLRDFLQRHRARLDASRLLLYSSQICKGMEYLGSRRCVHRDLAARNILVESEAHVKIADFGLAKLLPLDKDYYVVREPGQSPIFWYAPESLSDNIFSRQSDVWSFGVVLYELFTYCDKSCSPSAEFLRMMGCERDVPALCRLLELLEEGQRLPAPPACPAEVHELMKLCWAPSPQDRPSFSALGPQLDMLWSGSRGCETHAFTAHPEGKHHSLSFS
T4 sequence (Q9UM73 19-1620): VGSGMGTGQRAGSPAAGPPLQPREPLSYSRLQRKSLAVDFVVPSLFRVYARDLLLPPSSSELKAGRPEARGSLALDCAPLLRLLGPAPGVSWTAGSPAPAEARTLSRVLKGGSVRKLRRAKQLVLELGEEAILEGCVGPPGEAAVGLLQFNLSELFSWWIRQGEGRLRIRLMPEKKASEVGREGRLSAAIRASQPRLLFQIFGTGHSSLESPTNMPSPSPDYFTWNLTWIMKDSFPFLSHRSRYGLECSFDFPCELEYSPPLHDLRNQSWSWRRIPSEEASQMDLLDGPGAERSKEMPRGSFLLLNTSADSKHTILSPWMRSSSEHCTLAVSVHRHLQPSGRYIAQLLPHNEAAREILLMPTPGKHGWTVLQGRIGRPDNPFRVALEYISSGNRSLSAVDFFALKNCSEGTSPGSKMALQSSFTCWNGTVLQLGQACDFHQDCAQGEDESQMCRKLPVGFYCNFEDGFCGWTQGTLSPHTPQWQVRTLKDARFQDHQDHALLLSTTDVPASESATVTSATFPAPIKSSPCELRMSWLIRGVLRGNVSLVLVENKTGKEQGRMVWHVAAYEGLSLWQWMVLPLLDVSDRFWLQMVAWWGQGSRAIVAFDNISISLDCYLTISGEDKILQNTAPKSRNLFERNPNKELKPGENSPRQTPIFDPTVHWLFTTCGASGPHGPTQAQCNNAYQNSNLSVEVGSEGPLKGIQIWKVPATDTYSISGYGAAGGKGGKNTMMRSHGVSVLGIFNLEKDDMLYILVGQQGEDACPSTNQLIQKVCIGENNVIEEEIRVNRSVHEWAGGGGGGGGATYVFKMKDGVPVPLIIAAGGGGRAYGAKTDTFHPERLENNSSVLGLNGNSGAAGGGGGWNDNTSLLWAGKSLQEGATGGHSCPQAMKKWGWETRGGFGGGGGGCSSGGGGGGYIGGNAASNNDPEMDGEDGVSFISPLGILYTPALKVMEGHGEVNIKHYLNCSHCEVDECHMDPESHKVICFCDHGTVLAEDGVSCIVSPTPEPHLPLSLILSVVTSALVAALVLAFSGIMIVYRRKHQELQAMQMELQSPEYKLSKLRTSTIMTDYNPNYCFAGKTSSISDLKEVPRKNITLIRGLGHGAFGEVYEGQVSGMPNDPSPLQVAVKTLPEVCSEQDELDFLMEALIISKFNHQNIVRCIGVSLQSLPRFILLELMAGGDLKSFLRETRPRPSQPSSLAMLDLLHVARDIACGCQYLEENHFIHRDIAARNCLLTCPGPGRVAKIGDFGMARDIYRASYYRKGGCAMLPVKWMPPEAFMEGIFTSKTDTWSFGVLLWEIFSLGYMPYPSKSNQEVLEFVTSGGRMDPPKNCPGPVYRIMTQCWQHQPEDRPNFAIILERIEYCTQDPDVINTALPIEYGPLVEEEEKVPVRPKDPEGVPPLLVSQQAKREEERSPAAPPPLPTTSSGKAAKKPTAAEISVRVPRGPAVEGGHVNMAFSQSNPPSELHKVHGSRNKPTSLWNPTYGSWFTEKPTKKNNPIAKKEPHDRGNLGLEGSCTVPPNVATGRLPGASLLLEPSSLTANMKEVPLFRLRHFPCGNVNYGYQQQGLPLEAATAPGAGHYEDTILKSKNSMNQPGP
Chain of TYK2 (P29597 whole entry): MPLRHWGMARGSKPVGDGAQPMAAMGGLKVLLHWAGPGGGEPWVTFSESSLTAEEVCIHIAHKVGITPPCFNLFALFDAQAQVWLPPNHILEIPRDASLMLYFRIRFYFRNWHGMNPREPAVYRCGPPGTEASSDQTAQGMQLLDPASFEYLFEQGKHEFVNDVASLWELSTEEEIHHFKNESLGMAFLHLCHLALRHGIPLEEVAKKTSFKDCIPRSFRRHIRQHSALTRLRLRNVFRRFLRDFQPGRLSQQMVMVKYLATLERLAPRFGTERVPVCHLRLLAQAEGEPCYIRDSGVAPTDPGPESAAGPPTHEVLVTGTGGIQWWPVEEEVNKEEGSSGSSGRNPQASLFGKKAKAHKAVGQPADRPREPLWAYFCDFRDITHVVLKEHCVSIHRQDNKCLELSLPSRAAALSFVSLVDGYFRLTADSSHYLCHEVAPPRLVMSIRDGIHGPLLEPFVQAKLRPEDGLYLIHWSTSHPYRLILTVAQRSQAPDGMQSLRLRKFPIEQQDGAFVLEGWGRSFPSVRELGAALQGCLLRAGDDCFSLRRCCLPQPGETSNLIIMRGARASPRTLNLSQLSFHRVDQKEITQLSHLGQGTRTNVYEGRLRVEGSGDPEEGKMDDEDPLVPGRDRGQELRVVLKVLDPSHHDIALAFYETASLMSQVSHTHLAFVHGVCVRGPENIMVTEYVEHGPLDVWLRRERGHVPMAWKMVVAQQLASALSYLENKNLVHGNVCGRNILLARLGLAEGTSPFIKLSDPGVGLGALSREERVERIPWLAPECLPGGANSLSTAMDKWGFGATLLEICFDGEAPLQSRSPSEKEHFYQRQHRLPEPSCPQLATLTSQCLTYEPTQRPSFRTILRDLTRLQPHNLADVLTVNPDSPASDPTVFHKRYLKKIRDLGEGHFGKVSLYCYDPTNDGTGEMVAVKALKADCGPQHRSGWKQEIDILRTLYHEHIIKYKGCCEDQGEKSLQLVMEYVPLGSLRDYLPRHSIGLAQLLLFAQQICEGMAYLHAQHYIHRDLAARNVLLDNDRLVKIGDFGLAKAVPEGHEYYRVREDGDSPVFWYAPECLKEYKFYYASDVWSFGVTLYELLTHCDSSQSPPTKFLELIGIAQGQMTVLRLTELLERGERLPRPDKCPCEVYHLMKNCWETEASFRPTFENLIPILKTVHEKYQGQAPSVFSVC
T3 sequence (O60674 828-1132): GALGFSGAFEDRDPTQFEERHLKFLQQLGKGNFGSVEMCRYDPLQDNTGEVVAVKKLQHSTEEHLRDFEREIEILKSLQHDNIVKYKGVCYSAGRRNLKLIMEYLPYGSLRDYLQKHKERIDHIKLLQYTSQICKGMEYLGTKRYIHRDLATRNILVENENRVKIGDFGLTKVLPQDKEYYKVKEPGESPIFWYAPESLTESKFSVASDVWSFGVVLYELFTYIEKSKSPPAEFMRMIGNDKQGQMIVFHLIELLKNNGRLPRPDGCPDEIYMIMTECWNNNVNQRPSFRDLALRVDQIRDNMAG

Row | IC50 [1] [nM] | IC50 [2] [nM] | IC50 (TYK2) [nM] | IC50 [3] [nM] | IC50 [4] [nM] | ALK % of inhibition at a concentration of 500 nM or 1 mM [4] [%] | Structure (SMILES)
1 | 500 | > 1000 | > 1000 | 350 | > 1000 |  | CN1CCN(C(=O)c2cc3cc(c2)Nc2nc(ncc2Cl)Nc2cccc(c2)CC3)CC1 [Example B8, 6-Chloro-11-[(4-methylpiperazin-1-yl)carbonyl]-2,4,8,22-tetraazatetracyclo[14.3.1.1(3,7).1(9,13)]docosa-1(20),3(22),4,6,9(21),10,12,16,18-nonaene trifluoroacetate]
2 | 900 | 682 | > 1000 | 171 | > 1000 |  | O=C(Nc1cccc(Cl)c1)c1cc2cc(c1)Nc1nc(ncc1Cl)Nc1cccc(c1)CC2 [Example B13, 6-Chloro-N-(3-chlorophenyl)-2,4,8,22-tetraazatetracyclo[14.3.1.1(3,7).1(9,13)]docosa-1(20),3(22),4,6,9(21),10,12,16,18-nonaene-11-carboxamide trifluoroacetate]
3 | 52 | 182 | 206 | 7.5 | > 10000 |  | CC(C)(C)NS(=O)(=O)c1cc2cc(c1)Nc1nc(ncc1Cl)Nc1cccc(c1)CC2 [Example B16, N-(tert-Butyl)-6-chloro-2,4,8,22-tetraazatetracyclo[14.3.1.1(3,7).1(9,13)]docosa-1(20),3(22),4,6,9(21),10,12,16,18-nonaene-11-sulfonamide trifluoroacetate]
4 | 107 | 64 | 178 | 23 | > 1000 |  | NS(=O)(=O)c1cc2cc(c1)Nc1nc(ncc1Br)Nc1cccc(c1)CC2 [Example B18, 6-Bromo-2,4,8,22-tetraazatetracyclo[14.3.1.1(3,7).1(9,13)]docosa-1(20),3(22),4,6,9(21),10,12,16,18-nonaene-11-sulfonamide trifluoroacetate]
5 | 0.2 | 1.2 | 1.8 | 0.8 |  | 75 | OCc1ccc2cc1CCc1cccc(c1)Nc1ncc(Cl)c(n1)N2 [Example B23, [6-Chloro-2,4,8,22-tetraazatetracyclo[14.3.1.1(3,7).1(9,13)]docosa-1(20),3(22),4,6,9(21),10,12,16,18-nonaen-12-yl]methanol trifluoroacetate]
6 | 6.5 | 7.4 | 15 | 4.1 | 1100 |  | CC(=O)Nc1ccc2cc1CCc1cccc(c1)Nc1ncc(Cl)c(n1)N2 [Example B26, N-[6-Chloro-2,4,8,22-tetraazatetracyclo[14.3.1.1(3,7).1(9,13)]docosa-1(20), 3(22),4,6,9(21),10,12,16,18-nonaen-12-yl]acetamide trifluoroacetate]
7 | 5.2 | 8.5 | 15 | 3.7 | 880 |  | O=C(Nc1ccc2cc1CCc1cccc(c1)Nc1ncc(Cl)c(n1)N2)C1CC1 [Example B27, N-[6-Chloro-2,4,8,22-tetraazatetracyclo[14.3.1.1(3,7).1(9,13)]docosa-1(20), 3(22),4,6,9(21),10,12,16,18-nonaen-12-yl]cyclopropanecarboxamide trifluoroacetate]
8 | 8.2 | 10 | 20 | 4.1 | 1800 |  | COCC(=O)Nc1ccc2cc1CCc1cccc(c1)Nc1ncc(Cl)c(n1)N2 [Example B28, N-[6-Chloro-2,4,8,22-tetraazatetracyclo[14.3.1.1(3,7).1(9,13)]docosa-1(20), 3(22),4,6,9(21),10,12,16,18-nonaen-12-yl]-2-methoxyacetamide trifluoroacetate]

The next lines start with the compound.

Row | Structure (SMILES) | IC50 [1] [nM] | IC50 [2] [nM] | IC50 (TYK2) [nM] | IC50 [3] [nM] | IC50 [4] [nM] | ALK % of inhibition at a concentration of 500 nM or 1 mM [4] [%]
9 | O=C(Nc1ccc(N2CCOCC2)cc1)c1cc2cc(c1)Nc1nc(ncc1Cl)Nc1cccc(c1)CC2 [Example B9, 6-Chloro-N-(4-morpholin-4-ylphenyl)-2,4,8,22-tetraazatetracyclo[14.3.1.1(3,7).1(9,13)]docosa-1(20),3(22),4,6,9(21),10,12,16,18-nonaene-11-carboxamide trifluoroacetate] | 263 | > 1000 | 683 | 130 | > 1000 | 
10 | O=C(Nc1ccc(CCO)cc1)c1cc2cc(c1)Nc1nc(ncc1Cl)Nc1cccc(c1)CC2 [Example B10, 6-Chloro-N-[4-(2-hydroxyethyl)phenyl]-2,4,8,22-tetraazatetracyclo[14.3.1.1(3,7).1(9,13)]docosa-1(20),3(22),4,6,9(21),10,12,16,18-nonaene-11-carboxamide trifluoroacetate] | 68 | 51 | 172 | 12 | 1960 | 
11 | O=C(NCc1ccncc1)c1cc2cc(c1)Nc1nc(ncc1Cl)Nc1cccc(c1)CC2 [Example B11, 6-Chloro-N-(pyridin-4-ylmethyl)-2,4,8,22-tetraazatetracyclo[14.3.1.1(3,7).1(9,13)]docosa-1(20),3(22),4,6,9(21),10,12,16,18-nonaene-11-carboxamide bis(trifluoroacetate)] | 97 | 144 | 275 | 92 | 2370 | 
12 | O=C(c1cc2cc(c1)Nc1nc(ncc1Cl)Nc1cccc(c1)CC2)N1CCCC(O)C1 (stereo not shown) [Example B12, 1-{[6-Chloro-2,4,8,22-tetraazatetracyclo[14.3.1.1(3,7).1(9,13)]docosa-1(20), 3(22),4,6,9(21),10,12,16,18-nonaen-11-yl]carbonyl}piperidin-3-ol trifluoroacetate] | 235 | 450 | 312 | 112 | > 10000 | 
13 | O=C(Nc1ccccc1Cl)c1cc2cc(c1)Nc1nc(ncc1Cl)Nc1cccc(c1)CC2 [Example B14, 6-Chloro-N-(2-chlorophenyl)-2,4,8,22-tetraazatetracyclo[14.3.1.1(3,7).1(9,13)]docosa-1(20),3(22),4,6,9(21),10,12,16,18-nonaene-11-carboxamide trifluoroacetate] | 232 | 314 | > 1000 | 119 | > 1000 | 
14 | O=C(Nc1ccc(Cl)cc1)c1cc2cc(c1)Nc1nc(ncc1Cl)Nc1cccc(c1)CC2 [Example B15, 6-Chloro-N-(4-chlorophenyl)-2,4,8,22-tetraazatetracyclo[14.3.1.1(3,7).1(9,13)]docosa-1(20),3(22),4,6,9(21),10,12,16,18-nonaene-11-carboxamide trifluoroacetate] | 160 | 365 | > 1000 | 111 | > 1000 | 
15 | CC(C)(C)NS(=O)(=O)c1cc2cc(c1)Nc1nc(ncc1Br)Nc1cccc(c1)CC2 [Example B17, 6-Bromo-N-(tert-butyl)-2,4,8,22-tetraazatetracyclo[14.3.1.1(3,7).1(9,13)]docosa-1(20),3(22),4,6,9(21),10,12,16,18-nonaene-11-sulfonamide trifluoroacetate] | 71 | 126 | 152 | 11 | > 10000 | 
16 | Nc1ccc2cc1CCc1cccc(c1)Nc1ncc(Cl)c(n1)N2 [Example B19, 6-Chloro-2,4,8,22-tetraazatetracyclo[14.3.1.1(3,7).1(9,13)]docosa-1(20),3(22),4,6,9(21),10,12,16,18-nonaen-12-amine dihydrochloride] | 1.3 | 7.5 | 2.5 | 0.97 | 610 | 
17 | Nc1cc2cc(c1)Nc1nc(ncc1Cl)Nc1cccc(c1)CC2 [Example B21, 6-Chloro-2,4,8,22-tetraazatetracyclo[14.3.1.1(3,7).1(9,13)]docosa-1(20),3(22),4,6,9(21),10,12,16,18-nonaen-11-amine bis(trifluoroacetate)] | 18 | 21 | 32 | 6.3 | 1500 | 
18 | COC(=O)c1ccc2cc1CCc1cccc(c1)Nc1ncc(Cl)c(n1)N2 [Example B22, Methyl 6-chloro-2,4,8,22-tetraazatetracyclo[14.3.1.1(3,7).1(9,13)]docosa-1(20),3(22),4,6,9(21),10,12,16,18-nonaene-12-carboxylate trifluoroacetate] | 144 | 104 | 41 | 11 | 1440 | 
19 | OCc1cc2cc(c1)Nc1nc(ncc1Cl)Nc1cccc(c1)CC2 [Example B24, [6-Chloro-2,4,8,22-tetraazatetracyclo[14.3.1.1(3,7).1(9,13)]docosa-1(20),3(22),4,6,9(21),10,12,16,18-nonaen-11-yl]methanol trifluoroacetate] | 14 | 5.8 | 18 | 2.3 | 781 | 
20 | O=C(Nc1ccc2cc1CCc1cncc(c1)Nc1ncc(Cl)c(n1)N2)N[C@H]1CCNC1 [Example B25, N-[6-Chloro-2,4,8,18,22-pentaazatetracyclo[14.3.1.1(3,7).1(9,13)]docosa-1(20),3(22),4,6,9(21),10,12,16,18-nonaen-12-yl]-N′-[(3S)-pyrrolidin-3-yl]urea trihydrochloride] | 12 | 153 | 50 | 36 |  | 14
